Reference: patent publication US9113629B2, “4-amino-6-(4-substituted-phenyl)-picolinates and 6-amino-2-(4-substituted-phenyl)-pyrimidine-4-carboxylates and their use as herbicides” (DOW AGROSCIENCES LLC, priority 2013, dated 2015)
Read-outs that look alike come from different tables or passages of the source.

How the values were obtained:
[1] = system: TRZSS: wheat, including spring and winter (Triticum aestivum); test: Post-emergent Test III, herbicidal activity in wheat and barley; type: in vivo; settings: for pest or weed control at 35 g/ha / pest or weed control at 70 g/ha: Triticum aestivum, post-emergence, 504 h; for pest or weed control at 35 g/ha: 35 g ai/ha; for pest or weed control at 70 g/ha: 70 g ai/ha; for GR20 TRZSS: probit analysis
Summary of the method: (§1)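 GR20, GR50, GR80 and GR90 come from probit analysis of visual injury scores (0 = none, 100 = complete kill) taken 21 d after treatment. Foliar application was by track sprayer delivering 187 L/ha at five rates, from high down to 1/16×, onto greenhouse plants at the 2–3 leaf stage, with solvent-blank controls.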

[2] = system: KCHSC: kochia (Kochia scoparia); test: as above; type: in vivo; settings: for pest or weed control at 35 g/ha / pest or weed control at 70 g/ha: Bassia scoparia, post-emergence, 504 h; for pest or weed control at 35 g/ha: 35 g ai/ha; for pest or weed control at 70 g/ha: 70 g ai/ha; for GR50 KCHSC / GR80 KCHSC: probit analysis
Summary of the method: as §1

[3] = system: HORSS: barley, including spring and winter (Hordeum vulgare); test: as above; type: in vivo; settings: for pest or weed control at 35 g/ha / pest or weed control at 70 g/ha: Hordeum vulgare, post-emergence, 504 h; for pest or weed control at 35 g/ha: 35 g ai/ha; for pest or weed control at 70 g/ha: 70 g ai/ha; for GR20 HORSS: probit analysis
Summary of the method: as §1

[4] = system: MATSS: scented mayweed (Matricaria chamomilla), pineappleweed (Matricaria matricarioides); test: as above; type: in vivo; settings: for pest or weed control at 35 g/ha / pest or weed control at 70 g/ha: Matricaria chamomilla, post-emergence, 504 h; for pest or weed control at 35 g/ha: 35 g ai/ha; for pest or weed control at 70 g/ha: 70 g ai/ha; for GR50 MATSS / GR80 MATSS: probit analysis
Summary of the method: as §1

LAMSS = test: as above; type: in vivo
Summary of the method: as §1

[5] = system: APESV: bentgrass (Apera spica-venti); test: as above; type: in vivo; settings: for pest or weed control at 35 g/ha / pest or weed control at 70 g/ha: Apera spica-venti, post-emergence, 504 h, read-out: Visual Growth Reduction (%) 21 Days After Application APESV; for pest or weed control at 35 g/ha: 35 g ai/ha; for pest or weed control at 70 g/ha: 70 g ai/ha; for GR50 APESV / GR80 APESV: probit analysis
Summary of the method: as §1

[6] = system: LOLSS: ryegrass including, Italian ryegrass (Lolium multiflorum), rigid ryegrass (Lolium rigidum), annual ryegrass (Lolium multiflorum subsp. Gaudini); test: as above; type: in vivo; settings: probit analysis
Summary of the method: as §1

[7] = system: BROTE: downy brome (Bromus tectorum); test: as above; type: in vivo
Summary of the method: as §1

[8] = as above; type: in vivo, Lolium multiflorum, Lolium rigidum; settings: Lolium multiflorum, post-emergence, 504 h, read-out: Visual Growth Reduction (%) 21 Days After Application LOLSS; for pest or weed control at 35 g/ha: 35 g ai/ha; for pest or weed control at 70 g/ha: 70 g ai/ha
Summary of the method: as §1

[9] = system: SETVI: green foxtail (Setaria viridis); test: as above; type: in vivo; settings: Table 9, 21 d; for pest or weed control at 35 g/ha / pest or weed control at 70 g/ha: Setaria viridis, post-emergence, 504 h, post-emergent, read-out: Visual Growth Reduction (%) 21 Days After Application SETVI; for pest or weed control at 35 g/ha: 35 g ai/ha; for pest or weed control at 70 g/ha: 70 g ai/ha; for GR50 SETVI: dose for 50 percent growth reduction; for GR50 SETVI / GR80 SETVI: probit analysis; for GR80 SETVI: dose for 80 percent growth reduction
Summary of the method: as §1

[10] = 21 days after application, read-out: Visual Gorowth Reduction (%) 21 days After Application TRZSS
[11] = dose for 20 percent growth reduction (crop), 21 days after application
[12] = 21 days after application, read-out: Visual Gorowth Reduction (%) 21 days After Application KCHSC
[13] = dose for 50 percent growth reduction, 21 days after application
[14] = dose for 80 percent growth reduction, 21 days after application
[15] = 21 days after application, read-out: Visual Gorowth Reduction (%) 21 days After Application HORSS
[16] = 21 days after application, read-out: Visual Gorowth Reduction (%) 21 days After Application MATSS
[17] = probit analysis, dose for growth reduction of 50 percent, 21 days after application
[18] = probit analysis, dose for growth reduction of 80 percent, 21 days after application
[19] = dose for growth reduction of 50 percent, 21 days after application
[20] = dose for growth reduction of 80 percent, 21 days after application
[21] = read-out: Visual Growth Reduction (%) 21 Days After Application KCHSC
[22] = read-out: Visual Growth Reduction (%) 21 Days After Application MATSS
[23] = Table 9, dose for 20 percent growth reduction, 21 d
[24] = Table 9, post-emergent, 21 d, read-out: Visual Growth Reduction (%) 21 Days After Application TRZSS
[25] = Table 9, dose for 50 percent growth reduction, 21 d
[26] = Table 9, dose for 80 percent growth reduction, 21 d
[27] = Table 9, post-emergent, 21 d, read-out: Visual Growth Reduction (%) 21 Days After Application KCHSC
[28] = Table 9, post-emergent, 21 d, read-out: Visual Growth Reduction (%) 21 Days After Application HORSS

Q: With `COC(=O)c1nc(-c2ccc(Br)c(F)c2)c(F)c(N)c1Cl` [Compound 49] as the compound, how does the pest or weed control at 35 g/ha [1, 10] read?
A: 75 to 84%

Q: And the pest or weed control at 70 g/ha [1, 10]?
A: 85 to 94%

Q: And the “GR20 TRZSS” value [1, 11]?
A: 1 g ai/ha

Q: And the pest or weed control at 35 g/ha [2, 12]?
A: 85 to 94%

Q: And the pest or weed control at 70 g/ha [2, 12]?
A: 85 to 94%

Q: What about the “GR50 KCHSC” value [2, 13] of the same compound?
A: 4 g ai/ha

Q: What about the “GR80 KCHSC” value [2, 14] of the same compound?
A: 18 g ai/ha

Q: And the pest or weed control at 35 g/ha [3, 15]?
A: 75 to 84%

Q: And the pest or weed control at 70 g/ha [3, 15]?
A: 85 to 94%

Q: And the “GR20 HORSS” value [3, 11]?
A: 1 g ai/ha

Q: And the pest or weed control at 35 g/ha [4, 16]?
A: 60 to 74%

Q: And the pest or weed control at 70 g/ha [4, 16]?
A: 75 to 84%

Q: And the “GR50 MATSS” value [4, 13]?
A: 15 g ai/ha

Q: And the “GR80 MATSS” value [4, 14]?
A: 93 g ai/ha

Q: What does the source list for `Nc1c(F)c(-c2ccc(C(F)(F)F)c(F)c2F)nc(C(=O)O)c1Cl` [Compound 167]?
A: pest or weed control at 35 g/ha (LAMSS; post-emergence, 504 h, 35 g ai/ha, read-out: Visual Growth Reduction (%) 21 Days After Application LAMSS): 95 to 100%; pest or weed control at 70 g/ha (LAMSS; post-emergence, 504 h, 70 g ai/ha, read-out: Visual Growth Reduction (%) 21 Days After Application LAMSS): 95 to 100%; GR50 LAMSS (LAMSS; [17]): 1 g ai/ha; GR80 LAMSS (LAMSS; [18]): 1 g ai/ha; pest or weed control at 35 g/ha [5]: 75 to 84%; pest or weed control at 70 g/ha [5]: 85 to 94%; GR50 APESV [5, 19]: 20 g ai/ha; GR80 APESV [5, 20]: 46 g ai/ha; pest or weed control at 35 g/ha [2, 21]: 60 to 74%; pest or weed control at 70 g/ha [2, 21]: 75 to 84%; GR50 KCHSC [2, 19]: 23 g ai/ha; GR80 KCHSC [2, 20]: 52 g ai/ha; GR50 LOLSS [6, 19]: >140 g ai/ha; GR80 LOLSS [6, 20]: >140 g ai/ha; pest or weed control at 35 g/ha ([7]; Bromus tectorum, post-emergence, 504 h, 35 g ai/ha, read-out: Visual Growth Reduction (%) 21 Days After Application BROTE): 30 to 44%; pest or weed control at 70 g/ha ([7]; Bromus tectorum, post-emergence, 504 h, 70 g ai/ha, read-out: Visual Growth Reduction (%) 21 Days After Application BROTE): 75 to 84%; GR50 BROTE [7, 17]: 43 g ai/ha; GR80 BROTE [7, 18]: 81 g ai/ha; pest or weed control at 35 g/ha [8]: 0 to 29%; pest or weed control at 70 g/ha [8]: 0 to 29%; pest or weed control at 35 g/ha [4, 22]: 75 to 84%; pest or weed control at 70 g/ha [4, 22]: 85 to 94%; GR50 MATSS [4, 19]: 24 g ai/ha; GR80 MATSS [4, 20]: 48 g ai/ha

Q: Which results are given for `COc1c(N)nc(-c2ccc(C(F)(F)F)c(F)c2F)nc1C(=O)O` [Compound 76]?
A: GR20 TRZSS [1, 23]: 4 g ai/ha; pest or weed control at 35 g/ha [1, 24]: 75 to 84%; pest or weed control at 70 g/ha [1, 24]: 85 to 94%; pest or weed control at 35 g/ha ([5]; Table 9, post-emergent, 21 d): 75 to 84%; pest or weed control at 70 g/ha ([5]; Table 9, post-emergent, 21 d): 85 to 94%; GR50 APESV [5, 25]: 27 g ai/ha; GR80 APESV [5, 26]: 52 g ai/ha; pest or weed control at 35 g/ha [9]: 45 to 59%; pest or weed control at 70 g/ha [9]: 60 to 74%; GR50 SETVI [9]: 42 g ai/ha; GR80 SETVI [9]: 87 g ai/ha; pest or weed control at 35 g/ha [2, 27]: 0 to 29%; pest or weed control at 70 g/ha [2, 27]: 45 to 59%; GR50 KCHSC [2, 25]: 74 g ai/ha; GR80 KCHSC [2, 26]: 132 g ai/ha; GR50 LOLSS [6, 25]: 53 g ai/ha; GR80 LOLSS [6, 26]: 133 g ai/ha; pest or weed control at 35 g/ha ([8]; Table 9, post-emergent, 21 d): 30 to 44%; pest or weed control at 70 g/ha ([8]; Table 9, post-emergent, 21 d): 45 to 59%; pest or weed control at 35 g/ha [3, 28]: 60 to 74%; pest or weed control at 70 g/ha [3, 28]: 60 to 74%; GR20 HORSS [3, 23]: 6 g ai/ha

Q: For `Nc1cc(-c2ccc(C(F)(F)F)c(F)c2F)nc(C(=O)O)c1Cl` [Compound 172, 4-amino-3-chloro-6-(2,3-difluoro-4-(trifluoromethyl)phenyl)picolinic acid], which “GR20 TRZSS” value [1, 23] is on record?
A: 1 g ai/ha

Q: And the pest or weed control at 35 g/ha [1, 24]?
A: 75 to 84%

Q: And the pest or weed control at 70 g/ha [1, 24]?
A: 75 to 84%

Q: What about the pest or weed control at 35 g/ha ([5]; Table 9, post-emergent, 21 d) of the same compound?
A: 30 to 44%

Q: And the pest or weed control at 70 g/ha ([5]; Table 9, post-emergent, 21 d)?
A: 60 to 74%

Q: And the “GR50 APESV” value [5, 25]?
A: 53 g ai/ha

Q: What about the “GR80 APESV” value [5, 26] of the same compound?
A: 124 g ai/ha

Q: And the pest or weed control at 35 g/ha [9]?
A: 60 to 74%

Q: What about the pest or weed control at 70 g/ha [9] of the same compound?
A: 75 to 84%

Q: And the “GR50 SETVI” value [9]?
A: 25 g ai/ha

Q: And the “GR80 SETVI” value [9]?
A: 56 g ai/ha

Q: What about the pest or weed control at 35 g/ha [2, 27] of the same compound?
A: 60 to 74%

Q: And the pest or weed control at 70 g/ha [2, 27]?
A: 60 to 74%

Q: What about the “GR50 KCHSC” value [2, 25] of the same compound?
A: 38 g ai/ha

Q: And the “GR80 KCHSC” value [2, 26]?
A: 73 g ai/ha

Q: What about the “GR50 LOLSS” value [6, 25] of the same compound?
A: >140 g ai/ha

Q: What about the “GR80 LOLSS” value [6, 26] of the same compound?
A: >140 g ai/ha

Q: What about the pest or weed control at 35 g/ha ([8]; Table 9, post-emergent, 21 d) of the same compound?
A: 0 to 29%

Q: What about the pest or weed control at 70 g/ha ([8]; Table 9, post-emergent, 21 d) of the same compound?
A: 0 to 29%

Q: What about the pest or weed control at 35 g/ha [3, 28] of the same compound?
A: 60 to 74%

Q: What about the pest or weed control at 70 g/ha [3, 28] of the same compound?
A: 60 to 74%

Q: And the “GR20 HORSS” value [3, 23]?
A: 3 g ai/ha
